# Measurements from patent US10259843B2, “Cyclic tetrapeptide stereoisomers” (University of Kansas, priority 2014, dated 2019).
# “And” between values parts separate entries of the source, which are not always exact repeats. Equal entries are not always repeated. “Also recorded” adds a separate entry of the source. Structures can show the parent of a compound that is named as a salt. Where two headings read alike, the source gives them in different places. Non-standard residues stand in square brackets, D forms with d. Residues, ends and D or L forms follow the SMILES beside them.
# Key:
# [1] = test system: opioid receptors (KOR, MOR, DOR); assay: mouse 55° C. warm water tail withdrawal assay, opioid antagonist activity; format: in vivo; details: for Antagonism (opioid receptor antagonised in vivo): dose not given
# Procedure: (§1) The peptides of Table 1 shown below in Tables 3 and 4 were evaluated in radioligand binding assays for mu, kappa and delta opioid receptor affinities in vitro, and in the mouse 55° C. warm water tail withdrawal assay in vivo for antinociception and opioid antagonist activity.
# [2] = mouse 55° C. warm water tail withdrawal assay, antinociception; format: in vivo; details: for ED50 (95% CI) i.c.v. / ED50 (95% CI) p.o.: antinociception; for Receptors involved: opioid receptors contributing to antinociception
# Procedure: as §1
# [3] = rotorod test for sedation and motor coordination; format: in vivo; parameters: key: ✓ indicates tested (if no other comment then no significant effect)
# acute tolerance model = details: in vivo
# [4] = target: kappa opioid receptor (KOR) (Homo sapiens, UniProt P41145); assay: radioligand binding assay, kappa opioid receptor affinity; details: for Selectivity KOR/MOR/DOR: ratio of Ki values
# Procedure: as §1
# [5] = target: delta opioid receptor (DOR) (Homo sapiens, UniProt P41143); assay: radioligand binding assay, delta opioid receptor affinity; details: for Ki: n in parentheses, read-out: Ki (nM ± SEM) DOR
# Procedure: as §1
# locomotion (CLAMS) = format: in vivo; parameters: key: ✓ indicates tested (if no other comment then no significant effect)
# mu opioid receptor (MOR) = mu opioid receptor (MOR) (Homo sapiens, UniProt P35372); assay: radioligand binding assay, mu opioid receptor affinity
# Procedure: as §1
# [6] = conditioned place response assay; details: oral administration of the peptides
# respiratory depression = format: in vivo; parameters: key: ✓ indicates tested (if no other comment then no significant effect)
# [7] = other pain models (formalin, acetic acid stretching, nerve constriction; FIGS. 1-3B); details: in vivo
# Text: These models are based on the formalin assay, the acetic acid stretching assay, and the nerve constriction assay. The formalin and acetic acid stretching assays are indicative of activity against inflammatory pain (i.e., nociceptive pain) and the nerve constriction assay is indicative of activity against neuropathic pain.
# [8] = nerve constriction assay for neuropathic pain; format: in vivo, rodent; details: 10 mg/kg p.o.; compared to 50 mg/kg i.p. gabapentin and 2801
# Procedure: In the nerve constriction assay, a nerve of a subject rodent is chronically constricted or cuffed and then the animal is assessed for response to pain stimuli such a paw withdrawal. […] Gabapentin is an accepted treatment for neuropathic pain.
# [9] = n in parentheses, read-out: Ki (nM ± SEM) KOR
# [10] = n in parentheses, read-out: Ki (nM ± SEM) MOR
# delta opioid receptor (DOR), sequence (P41143 whole entry): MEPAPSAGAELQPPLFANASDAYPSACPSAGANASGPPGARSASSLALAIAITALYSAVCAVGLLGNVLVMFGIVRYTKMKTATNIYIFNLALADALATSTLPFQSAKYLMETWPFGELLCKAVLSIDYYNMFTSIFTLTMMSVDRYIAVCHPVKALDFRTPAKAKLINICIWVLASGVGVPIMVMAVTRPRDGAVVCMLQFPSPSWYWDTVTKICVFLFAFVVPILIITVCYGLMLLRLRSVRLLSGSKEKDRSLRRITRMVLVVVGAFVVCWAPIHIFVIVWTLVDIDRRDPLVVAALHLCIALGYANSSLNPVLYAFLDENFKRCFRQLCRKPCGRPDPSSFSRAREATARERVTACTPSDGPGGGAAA
# kappa opioid receptor (KOR), sequence (P41145 whole entry): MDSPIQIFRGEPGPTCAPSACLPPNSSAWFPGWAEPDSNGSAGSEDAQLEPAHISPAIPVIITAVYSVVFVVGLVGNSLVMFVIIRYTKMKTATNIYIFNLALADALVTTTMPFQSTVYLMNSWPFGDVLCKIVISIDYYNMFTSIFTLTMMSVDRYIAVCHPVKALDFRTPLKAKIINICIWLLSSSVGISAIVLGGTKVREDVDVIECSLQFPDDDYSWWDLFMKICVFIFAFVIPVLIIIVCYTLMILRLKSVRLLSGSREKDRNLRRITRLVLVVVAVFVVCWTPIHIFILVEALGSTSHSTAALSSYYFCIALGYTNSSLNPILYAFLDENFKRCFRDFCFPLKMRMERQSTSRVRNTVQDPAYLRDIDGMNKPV
# mu opioid receptor (MOR), sequence (P35372 whole entry): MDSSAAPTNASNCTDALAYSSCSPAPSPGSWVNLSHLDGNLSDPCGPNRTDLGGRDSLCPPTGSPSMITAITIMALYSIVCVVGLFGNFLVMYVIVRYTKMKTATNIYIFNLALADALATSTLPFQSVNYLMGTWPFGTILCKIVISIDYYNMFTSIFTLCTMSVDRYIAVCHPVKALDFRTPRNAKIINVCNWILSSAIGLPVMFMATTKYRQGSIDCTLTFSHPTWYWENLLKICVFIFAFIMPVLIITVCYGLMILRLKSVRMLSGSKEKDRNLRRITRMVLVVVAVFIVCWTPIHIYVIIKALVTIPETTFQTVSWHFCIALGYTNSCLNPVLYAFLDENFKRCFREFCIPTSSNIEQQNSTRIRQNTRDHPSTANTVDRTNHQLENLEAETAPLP
compound,measurement,setting,value
"O=C1N[C@@H](Cc2ccccc2)C(=O)N2CCC[C@@H]2C(=O)N[C@@H](Cc2ccccc2)C(=O)N[C@H]1Cc1c[nH]c2ccccc12 [JVA 2801, cyclo[Phe-D-Pro-Phe-Trp], reference compound] (cyclo(FWF[dP]))",Antagonism (opioid receptor antagonised in vivo),[1],KOR
same,Antagonism (opioid receptor antagonised in vivo),"[1]; listed as CJ-15,208",mixed opioid agonist/kappa opioid receptor (KOR) antagonist activity; also recorded: weak antagonist activities at kappa opioid receptors (KOR)
same,ED50 (95% CI) i.c.v.,[2]; i.c.v.,1.74 nmol
same,ED50 (95% CI) p.o.,[2]; p.o.,3.49 mg/kg
same,Receptors involved,[2],"KOR, MOR"
same,Rotorod,[3]; 10 and 60 mg/kg,✓ (10 and 60
same,Acute Tolerance ED50 shift,acute tolerance model,1.73 fold
same,Ki,[4]; [9],35.4 nM and 16.9 nM
same,Selectivity KOR/MOR/DOR,[4],1/18/49 and 1/12/102
same,Ki,[5],1720 ± 350 nM
"O=C1N[C@H](Cc2c[nH]c3ccccc23)C(=O)N[C@@H](Cc2ccccc2)C(=O)N2CCC[C@@H]2C(=O)N[C@H]1Cc1ccccc1 [JVA 2802, cyclo[Phe-D-Pro-Phe-D-Trp], reference compound] (cyclo(F[dP]F[dW]))",Locomotion (CLAMS),locomotion (CLAMS); 60 mg/kg,✓
same,Antagonism (opioid receptor antagonised in vivo),[1],KOR
same,antinociception i.c.v. at 30 nmol,"[2]; i.c.v., 30 nmol",~40% @
same,Receptors involved,[2],KOR
same,antinociception p.o. at 60 mg/kg,"[2]; p.o., 60 mg/kg",~25% @
same,Ki,mu opioid receptor (MOR); [10],259 ± 29 nM
same,affinity for KOR,[4],"retains KOR affinity comparable to the parent CJ-15,208"
same,Selectivity KOR/MOR/DOR,[4],1/37/599
same,Ki,[5],4190 ± 860 nM
"O=C1N[C@H](Cc2ccccc2)C(=O)N2CCC[C@@H]2C(=O)N[C@@H](Cc2ccccc2)C(=O)N[C@H]1Cc1c[nH]c2ccccc12 [JVA 3605, cyclo[D-Phe-D- Pro-Phe-Trp]] (cyclo([dF][dP]FW))",conditioned place preference (drug seeking behavior) or conditioned place aversion,[6],no evidence of inducing drug seeking behavior; also recorded: do not show evidence of conditioned place preference (drug seeking behavior) or conditioned place aversion
same,"Locomotion (CLAMS, 10 mg/kg, p.o.)",locomotion (CLAMS),✓
same,"Antagonism (dose, nmol)",[1]; 30 nmol,"KOR (30),"
same,"Antagonism (dose, nmol)",[1]; 100 nmol,DOR (100)
same,Antagonism (opioid receptor antagonised in vivo),[1],exhibits KOR antagonist activity; also recorded: exhibit DOR antagonist activity
same,ED50 (95% CI) i.c.v.,[2]; i.c.v.,0.75 nmol
same,ED50 (95% CI) p.o.,[2]; p.o.,7.62 mg/kg
same,Receptors involved,[2],"KOR, MOR, and DOR"
same,Ki,mu opioid receptor (MOR); [10],> 10000 nM
same,"Rotorod (10 mg/kg, p.o.)",[3],"effects similar to the KOR selective agonist U50,488, suggesting sedation; also recorded: ✓ (sig"
same,Respiratory depression 10 mg/kg p.o.,respiratory depression,evidence of respiratory depression; also recorded: Sig. resp
same,analgesic activity in other pain models,[7],significant analgesic properties; also recorded: show activity against pain
same,Ki,[4]; [9],5120 ± 690 nM
same,relief of neuropathic pain,[8],significant relief of neuropathic pain
same,Ki,[5],> 10000 nM
"O=C1N[C@@H](Cc2ccccc2)C(=O)N2CCC[C@@H]2C(=O)N[C@H](Cc2ccccc2)C(=O)N[C@H]1Cc1c[nH]c2ccccc12 [JVA 3606, cyclo[Phe-D-Pro-D-Phe-Trp]] (cyclo(F[dP][dF]W))","Locomotion (CLAMS, 10 mg/kg, p.o.)",locomotion (CLAMS),Sig. hypo-
same,"Antagonism (dose, nmol)",[1]; 100 nmol,None (100)
same,ED50 (95% CI) i.c.v.,[2]; i.c.v.,Partial agonist
same,ED50 (95% CI) p.o.,[2]; p.o.,> 30 mg/kg
same,maximum antinociception i.c.v.,"[2]; i.c.v., max",(~60% max)
same,Receptors involved,[2],"KOR, MOR"
same,antinociception response p.o. at 30 mg/kg,[2]; p.o.,~45%
same,Ki,mu opioid receptor (MOR); [10],3920 ± 200 nM
same,Ki,mu opioid receptor (MOR); read-out: Ki MOR,> 1000 nM
same,"Rotorod (10 mg/kg, p.o.)",[3],✓
same,Respiratory depression 10 mg/kg p.o.,respiratory depression,✓
same,Acute Tolerance ED50 shift,acute tolerance model,Substantial
same,Ki,[4]; [9],362 ± 51 nM
same,Ki,[4]; read-out: Ki KOR,< 1000 nM
same,affinity for DOR,[5],negligible affinity
same,Ki,[5],> 10000 nM
"O=C1N[C@H](Cc2ccccc2)C(=O)N[C@H](Cc2c[nH]c3ccccc23)C(=O)N[C@@H](Cc2ccccc2)C(=O)N2CCC[C@H]12 [JVA 3608, cyclo[Phe-D-Pro-D-Phe-D-Trp]] (cyclo(F[dP][dF][dW]))","Locomotion (CLAMS, 10 mg/kg, p.o.)",locomotion (CLAMS),Sig. hypo-
same,"Antagonism (dose, nmol)",[1]; 100 nmol,DOR (100)
same,Antagonism (opioid receptor antagonised in vivo),[1],exhibit DOR antagonist activity
same,ED50 (95% CI) i.c.v.,[2]; i.c.v.,0.56 nmol
same,ED50 (95% CI) p.o.,[2]; p.o.,4.72 mg/kg
same,Receptors involved,[2],"KOR, MOR, and DOR"
same,Ki,mu opioid receptor (MOR); [10],5800 ± 1450 nM
same,Ki,mu opioid receptor (MOR); read-out: Ki MOR,> 1000 nM
same,"Rotorod (10 mg/kg, p.o.)",[3],✓
same,Respiratory depression 10 mg/kg p.o.,respiratory depression,evidence of respiratory depression; also recorded: Resp
same,analgesic activity in other pain models,[7],significant analgesic properties
same,analgesic activity in other pain models,[7]; listed as 3708,show activity against pain
same,Acute Tolerance ED50 shift,acute tolerance model,9.87 fold
same,Ki,[4]; [9],353 ± 19 nM
same,Ki,[4]; read-out: Ki KOR,< 1000 nM
same,relief of neuropathic pain,[8],significant relief of neuropathic pain
same,affinity for DOR,[5],negligible affinity
same,Ki,[5],> 10000 nM
"O=C1N[C@H](Cc2c[nH]c3ccccc23)C(=O)N[C@H](Cc2ccccc2)C(=O)N2CCC[C@@H]2C(=O)N[C@H]1Cc1ccccc1 [JVA 3609, cyclo[D-Phe-D- Pro-Phe-D-Trp]] (cyclo(F[dW][dF][dP]))","Locomotion (CLAMS, 10 mg/kg, p.o.)",locomotion (CLAMS),Sig. hypo-
same,"Antagonism (dose, nmol)",[1]; 30 nmol,None (30)
same,ED50 (95% CI) i.c.v.,[2]; i.c.v.,2.39 nmol
same,ED50 (95% CI) p.o.,[2]; p.o.,≥10 mg/kg
same,Receptors involved,[2],"mu opioid receptors (MOR) are not involved; also recorded: DOR, KOR"
same,antinociception response p.o. at 30 mg/kg,[2]; p.o.,(~60% at
same,Ki,mu opioid receptor (MOR); [10],> 10000 nM
same,"Rotorod (10 mg/kg, p.o.)",[3],✓ (sig
same,Respiratory depression 10 mg/kg p.o.,respiratory depression,evidence of respiratory depression; also recorded: Resp
same,Ki,[4]; [9],> 10000 nM
same,Ki,[5],> 10000 nM
"O=C1N[C@@H](Cc2ccccc2)C(=O)N2CCC[C@H]2C(=O)N[C@@H](Cc2ccccc2)C(=O)N[C@H]1Cc1c[nH]c2ccccc12 [JVA 3612, cyclo[Phe-Pro- Phe-Trp]] (cyclo(FPFW))",ED50 (95% CI) i.c.v.,[2]; i.c.v.,3.52 (2.01-6.42) nmol
same,ED50 (95% CI) p.o.,[2]; p.o.,4.28 (3.56-5.27) mg/kg
same,Receptors involved,[2],"KOR, MOR and DOR"
"O=C1N[C@H](Cc2ccccc2)C(=O)N2CCC[C@H]2C(=O)N[C@H](Cc2ccccc2)C(=O)N[C@H]1Cc1c[nH]c2ccccc12 [JVA 3638, cyclo[D-Phe- Pro-D-Phe-Trp]] (cyclo(P[dF]W[dF]))",ED50 (95% CI) i.c.v.,[2]; i.c.v.,8.93 (1.96-19.5) nmol
"O=C1N[C@H](Cc2c[nH]c3ccccc23)C(=O)N[C@@H](Cc2ccccc2)C(=O)N2CCC[C@H]2C(=O)N[C@H]1Cc1ccccc1 [JVA 3639, cyclo[Phe-Pro- Phe-D-Trp]] (cyclo(FPF[dW]))",ED50 (95% CI) i.c.v.,[2]; i.c.v.,49.7 (34.8-69.8) nmol
"CN1CC[C@]23c4c5ccc(O)c4O[C@H]2[C@@H](O)C=C[C@H]3[C@H]1C5 [Morphine sulfate, morphine, reference compound]",conditioned place preference (drug seeking behavior) or conditioned place aversion,[6],significant conditioned place preference
